Tests used:
glucose oxidase = molecular target: T1, glucose oxidase (Aspergillus niger, UniProt P13006); assay: Kinetic studies of the blue dye with oxidases (Michaelis-Menten constant); type: biochemical; conditions: compared with lactate oxidase and xanthine oxidase
T1 construct: purchased Sigma (St. Louis, Mo.)

[1] = water; cited from earlier work
[2] = Sensitivity of the dye / its absorption characteristics to pH variation; type: physicochemical; conditions: products of chemical oxidation by ceric sulfate or iodine/KI
Text: It was also noted that the DMFeCp2 -hp-β-CD complex stored at room temperature began to turn green, indicating a preference toward the oxidized state. As also reported, 15 the redox potential of DMFeCp2 is lowest (100 mV) among several known ferrocene-related compounds and this may contribute to the stability of DMFeCp2^+ in comparison to FeCp2^+. Both forms of ferricinium were insensitive to pH variation from 2-11. This characteristic is of advantage since the assay can be performed regardless of some fluctuation in pH and is applicable for a variety of oxidases with different pH optima. Due to the instability of the concentrated FeCp2^+, further studies focused on the electrochemically produced DMFeCp2^+.
Both FeCp2 and DMFeCp2 were oxidized by ceric sulfate or iodine/KI to FeCp2 H^+, (ferrocenonium) and DMFeCp2 H^+ (1,1'-dimethylferrocenonium), respectively. The reaction was almost instantaneous and the spectra of these two cation species were identical to those of ferricinium and 1,1'-dimethylferricinium. […] Such results were not completely unexpected since in strong acid media ferrocene was reported to undergo extensive protonation on the metal atom.

[3] = prepared with soluble bilirubin oxidase, stored at 4° C.

T1 sequence (P13006 17-605): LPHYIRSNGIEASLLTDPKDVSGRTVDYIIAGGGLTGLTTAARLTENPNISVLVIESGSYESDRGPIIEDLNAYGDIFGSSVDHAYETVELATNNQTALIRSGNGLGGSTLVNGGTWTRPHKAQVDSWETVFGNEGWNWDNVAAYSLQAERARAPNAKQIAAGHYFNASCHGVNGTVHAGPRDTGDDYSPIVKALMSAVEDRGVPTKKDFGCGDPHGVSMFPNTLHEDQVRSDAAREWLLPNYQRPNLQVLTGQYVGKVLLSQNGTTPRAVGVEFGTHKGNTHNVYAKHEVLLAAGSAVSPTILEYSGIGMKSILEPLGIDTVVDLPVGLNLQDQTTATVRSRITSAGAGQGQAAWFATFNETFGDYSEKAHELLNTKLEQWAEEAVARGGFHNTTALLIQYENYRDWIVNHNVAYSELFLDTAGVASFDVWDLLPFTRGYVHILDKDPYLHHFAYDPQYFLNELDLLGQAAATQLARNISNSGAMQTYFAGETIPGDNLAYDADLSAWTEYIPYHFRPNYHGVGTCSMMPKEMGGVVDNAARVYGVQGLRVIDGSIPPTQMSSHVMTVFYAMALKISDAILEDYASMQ

stability against changes in pH [2] | Compound | solubility of the cyclodextrin in aqueous solutions [1] | also measured
– | 1,1'-dimethylferricinium [DMFeCp2^+] | – | Michaelis-Menten constant for the blue dye (glucose oxidase): noticeably higher
– | 2-hydroxypropyl-β-cyclodextrin [Hp-β-CD] | 50 % w/v | –
not stable against changes in pH | CC1C=CC=C1.C[c-]1cccc1.[Fe+2] [DMFeCp2 H^+, 1,1'-dimethylferrocenonium] | – | –
– | OC[C@H]1O[C@@H]2O[C@H]3[C@H](O)[C@@H](O)[C@@H](O[C@H]4[C@H](O)[C@@H](O)[C@@H](O[C@H]5[C@H](O)[C@@H](O)[C@@H](O[C@H]6[C@H](O)[C@@H](O)[C@@H](O[C@H]7[C@H](O)[C@@H](O)[C@@H](O[C@H]1[C@H](O)[C@H]2O)O[C@@H]7CO)O[C@@H]6CO)O[C@@H]5CO)O[C@@H]4CO)O[C@@H]3CO [α-CD, α-cyclodextrin] | 12-16 % w/v | –
– | ferricinium [FeCp2^+] | – | time stable [3]: 2 months
not stable against changes in pH | ferrocenonium [FeCp2 H^+] | – | –

— patent US5432274A, “Redox dye and method of preparation thereof using 2-hydroxypropyl-β-cyclodextrin and 1,1'-dimethylferrocene” (National Research Council of Canada, priority 1993, dated 1995)
